In brackets after ≈: the same amount, converted by molar mass. Bridge positions count the residues as written; N and C are the ends. Square brackets hold non-standard residues; d marks the D form. Peptide text beside a SMILES is read from it. * marks the point of attachment. Heptanoyl(6-Me) = CC(C)CCCCC(=O)*; dOrn = NCCC[C@@H](N)C(=O)O; Nonanoyl = CCCCCCCCC(=O)*; X1 = CC[C@H](C)CCCCC(=O)*; dDab = NCC[C@@H](N)C(=O)O; Heptanoyl = CCCCCCC(=O)*; Orn = NCCC[C@H](N)C(=O)O; Dab = NCC[C@H](N)C(=O)O; Dap = NC[C@H](N)C(=O)O
How the values were obtained:
Assay type in all cases: cell-based
[1] = system: Acinetobacter baumannii ABA19-1; conditions: ABA19-1
In short: (§1)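 Broth microdilution MIC per CLSI in MH broth, compounds 2-fold diluted to final 64–0.03 mg/L. Inoculum (2-4) × 10^5 CFU/mL final, from 0.5 McFarland suspensions of 18-24 h colonies. Plates sealed and incubated 35-37°C for 16-20 h.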

[2] = system: Acinetobacter baumannii NCTC 13304 (OXA-27); conditions: NCTC 13304
In short: as §1

[3] = system: Escherichia coli ATCC BAA-2340 (KPC); conditions: ATCC BAA-2340
In short: as §1

[4] = system: Escherichia coli ATCC BAA-2523; conditions: ATCC BAA-2523
In short: as §1

[5] = system: Klebsiella pneumoniae ATCC BAA-1705 (KPC); conditions: ATCC BAA-1705
In short: as §1

[6] = system: Klebsiella pneumoniae KPN+19-15; conditions: KPN+19-15
In short: as §1

[7] = system: Pseudomonas aeruginosa ATCC 27853; conditions: ATCC 27853
In short: as §1

[8] = system: Pseudomonas aeruginosa PAE19-3; conditions: PAE19-3
In short: as §1

[9] = Nephrotoxicity assay: in vitro cytotoxicity of HK-2 cells by CCK-8 assay; conditions: human, HK-2 cells (human renal), 72 h incubation with drug-containing medium
In short: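 HK-2 human renal cells in RPMI-1640 with 10% FBS were exposed to compounds at final 12.5–500 µg/mL for 72 h, then CCK-8 for 3 h and OD450 read. Viability was normalised to drug-free wells; IC50 came from logarithmic regression over three repeats, with polymyxin B as positive drug.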

## CC(C)CCCCC(=O)N[C@@H](CCN)C(=O)N[C@H](C(=O)N[C@H](CO)C(=O)N[C@H]1CCNC(=O)[C@H]([C@@H](C)O)NC(=O)[C@H](CCN)NC(=O)[C@H](CCN)NC(=O)[C@H]([C@@H](C)O)NC(=O)[C@@H](Cc2ccccc2)NC(=O)[C@H](CCCN)NC1=O)[C@@H](C)O [Compound 67, 6-methylheptanoyl-Dab-Thr-D-Ser-ring(4-10)[Dab-Orn-D-Phe-Thr-Dab-Dab-Thr]] ({Heptanoyl(6-Me)}-[Dab]T[dS][Dab][Orn][dF]T[Dab][Dab]T; lactam 4-C)
[1]
  MIC: 0.25 µg/mL (≈ 0.212 µM)
[2]
  MIC: 0.25 µg/mL (≈ 0.212 µM)
[3]
  MIC: 0.25 µg/mL (≈ 0.212 µM)
[4]
  MIC: 0.25 µg/mL (≈ 0.212 µM)
[5]
  MIC: 0.25 µg/mL (≈ 0.212 µM)
[6]
  MIC: 0.5 µg/mL (≈ 0.424 µM)
[7]
  MIC: 64 µg/mL (≈ 54.3 µM)
[8]
  MIC: 4 µg/mL (≈ 3.39 µM)
[9]
  IC50 at 72 h: > 500 µg/mL

## CC(C)CCCCC(=O)N[C@@H](CCN)C(=O)N[C@H](C(=O)N[C@@H](CN)C(=O)N[C@H]1CCNC(=O)[C@H]([C@@H](C)O)NC(=O)[C@H](CCN)NC(=O)[C@H](CCN)NC(=O)[C@H](CC(C)C)NC(=O)[C@@H](Cc2ccccc2)NC(=O)[C@H](CCN)NC1=O)[C@@H](C)O [Compound 37, 6-methylheptanoyl-Dab-Thr-Dap-ring(4-10)[Dab-Dab-D-Phe-Leu-Dab-Dab-Thr]] ({Heptanoyl(6-Me)}-[Dab]T[Dap][Dab][Dab][dF]L[Dab][Dab]T; lactam 4-C)
[1]
  MIC: 0.03 µg/mL (≈ 0.0255 µM)
[2]
  MIC: 0.03 µg/mL (≈ 0.0255 µM)
[3]
  MIC: 0.03 µg/mL (≈ 0.0255 µM)
[4]
  MIC: 0.03 µg/mL (≈ 0.0255 µM)
[5]
  MIC: 0.03 µg/mL (≈ 0.0255 µM)
[6]
  MIC: 0.03 µg/mL (≈ 0.0255 µM)
[7]
  MIC: 0.03 µg/mL (≈ 0.0255 µM)
[8]
  MIC: 0.25 µg/mL (≈ 0.213 µM)
[9]
  IC50 at 72 h: 318 ± 10.2 µg/mL (≈ 270 µM)

## CCCCCCC(=O)N[C@@H](CCN)C(=O)N[C@H](C(=O)N[C@H](CO)C(=O)N[C@H]1CCNC(=O)[C@H]([C@@H](C)O)NC(=O)[C@H](CCN)NC(=O)[C@H](CN)NC(=O)[C@H]([C@@H](C)O)NC(=O)[C@@H](Cc2ccccc2)NC(=O)[C@H](CCN)NC1=O)[C@@H](C)O [Compound 74, Heptanoyl-Dab-Thr-D-Ser-ring(4-10)[Dab-Dab-D-Phe-Thr-Dap-Dab-Thr]] (Heptanoyl-[Dab]T[dS][Dab][Dab][dF]T[Dap][Dab]T; lactam 4-C)
[1]
  MIC: 0.06 µg/mL (≈ 0.0528 µM)
[2]
  MIC: 0.03 µg/mL (≈ 0.0264 µM)
[3]
  MIC: 0.06 µg/mL (≈ 0.0528 µM)
[4]
  MIC: 0.06 µg/mL (≈ 0.0528 µM)
[5]
  MIC: 0.25 µg/mL (≈ 0.22 µM)
[6]
  MIC: 0.5 µg/mL (≈ 0.44 µM)
[7]
  MIC: >64 µg/mL
[8]
  MIC: 64 µg/mL (≈ 56.3 µM)
[9]
  IC50 at 72 h: > 500 µg/mL

## CC[C@H](C)CCCCC(=O)N[C@@H](CCN)C(=O)N[C@H](C(=O)N[C@H](CCN)C(=O)N[C@H]1CCNC(=O)[C@H]([C@@H](C)O)NC(=O)[C@H](CCN)NC(=O)[C@H](CCN)NC(=O)[C@H]([C@@H](C)O)NC(=O)[C@@H](Cc2ccccc2)NC(=O)[C@H](CCN)NC1=O)[C@@H](C)O [Compound 11, (S)-6-methyloctanoyl-Dab-Thr-D-Dab-ring(4-10)[Dab-Dab-D-Phe-Thr-Dab-Dab-Thr]] (X1-[Dab]T[dDab][Dab][Dab][dF]T[Dab][Dab]T; lactam 4-C)
[1]
  MIC: ≤0.03 µg/mL
[2]
  MIC: ≤0.03 µg/mL
[3]
  MIC: ≤0.03 µg/mL
[4]
  MIC: ≤0.03 µg/mL
[5]
  MIC: ≤0.03 µg/mL
[6]
  MIC: ≤0.03 µg/mL
[7]
  MIC: 1 µg/mL (≈ 0.839 µM)
[8]
  MIC: 1 µg/mL (≈ 0.839 µM)
[9]
  IC50 at 72 h: 371 ± 54.6 µg/mL (≈ 311 µM)

## CC[C@H](C)CCCCC(=O)N[C@@H](CCN)C(=O)N[C@H](C(=O)N[C@@H](CCCN)C(=O)N[C@H]1CCNC(=O)[C@H]([C@@H](C)O)NC(=O)[C@H](CCN)NC(=O)[C@H](CCN)NC(=O)[C@H]([C@@H](C)O)NC(=O)[C@@H](Cc2ccccc2)NC(=O)[C@H](CCN)NC1=O)[C@@H](C)O [Compound 26, (S)-6-methyloctanoyl-Dab-Thr-Orn-ring(4-10)[Dab-Dab-D-Phe-Thr-Dab-Dab-Thr]] (X1-[Dab]T[Orn][Dab][Dab][dF]T[Dab][Dab]T; lactam 4-C)
[1]
  MIC: 0.125 µg/mL (≈ 0.104 µM)
[2]
  MIC: 0.06 µg/mL (≈ 0.0498 µM)
[3]
  MIC: ≤0.03 µg/mL
[4]
  MIC: ≤0.03 µg/mL
[5]
  MIC: ≤0.03 µg/mL
[6]
  MIC: ≤0.03 µg/mL
[7]
  MIC: ≤0.03 µg/mL
[8]
  MIC: 0.25 µg/mL (≈ 0.207 µM)
[9]
  IC50 at 72 h: > 500 µg/mL

## CC[C@H](C)CCCCC(=O)N[C@@H](CCN)C(=O)N[C@H](C(=O)N[C@@H](CCCN)C(=O)N[C@H]1CCNC(=O)[C@H]([C@@H](C)O)NC(=O)[C@H](CCN)NC(=O)[C@H](CCN)NC(=O)[C@H](CC(C)C)NC(=O)[C@@H](Cc2ccccc2)NC(=O)[C@H](CCN)NC1=O)[C@@H](C)O [Compound 46, (S)-6-methyloctanoyl-Dab-Thr-Orn-ring(4-10)[Dab-Dab-D-Phe-Leu-Dab-Dab-Thr]] (X1-[Dab]T[Orn][Dab][Dab][dF]L[Dab][Dab]T; lactam 4-C)
[1]
  MIC: 0.125 µg/mL (≈ 0.103 µM)
[2]
  MIC: 0.06 µg/mL (≈ 0.0493 µM)
[3]
  MIC: 0.03 µg/mL (≈ 0.0246 µM)
[4]
  MIC: 0.03 µg/mL (≈ 0.0246 µM)
[5]
  MIC: ≤0.03 µg/mL
[6]
  MIC: ≤0.03 µg/mL
[7]
  MIC: ≤0.03 µg/mL
[8]
  MIC: 0.25 µg/mL (≈ 0.205 µM)
[9]
  IC50 at 72 h: 287 ± 10.7 µg/mL (≈ 236 µM)

## CC[C@H](C)CCCCC(=O)N[C@@H](CCN)C(=O)N[C@H](C(=O)N[C@@H](CCN)C(=O)N[C@H]1CCNC(=O)[C@H]([C@@H](C)O)NC(=O)[C@H](CCN)NC(=O)[C@H](CCN)NC(=O)[C@H]([C@@H](C)O)NC(=O)[C@@H](Cc2ccccc2)NC(=O)[C@H](CCN)NC1=O)[C@@H](C)O [Compound 16, (S)-6-methyloctanoyl-Dab-Thr-Dab-ring(4-10)[Dab-Dab-D-Phe-Thr-Dab-Dab-Thr]] (X1-[Dab]T[Dab][Dab][Dab][dF]T[Dab][Dab]T; lactam 4-C)
[1]
  MIC: ≤0.03 µg/mL
[2]
  MIC: ≤0.03 µg/mL
[3]
  MIC: ≤0.03 µg/mL
[4]
  MIC: ≤0.03 µg/mL
[5]
  MIC: ≤0.03 µg/mL
[6]
  MIC: ≤0.03 µg/mL
[7]
  MIC: 0.5 µg/mL (≈ 0.42 µM)
[8]
  MIC: 0.5 µg/mL (≈ 0.42 µM)
[9]
  IC50 at 72 h: > 500 µg/mL

## CC(C)CCCCC(=O)N[C@@H](CCN)C(=O)N[C@H](C(=O)N[C@H](CCCN)C(=O)N[C@H]1CCNC(=O)[C@H]([C@@H](C)O)NC(=O)[C@H](CCN)NC(=O)[C@H](CCN)NC(=O)[C@H]([C@@H](C)O)NC(=O)[C@@H](Cc2ccccc2)NC(=O)[C@H](CCN)NC1=O)[C@@H](C)O [Compound 22, 6-methylheptanoyl-Dab-Thr-D-Orn-ring(4-10)[Dab-Dab-D-Phe-Thr-Dab-Dab-Thr]] ({Heptanoyl(6-Me)}-[Dab]T[dOrn][Dab][Dab][dF]T[Dab][Dab]T; lactam 4-C)
[1]
  MIC: 0.125 µg/mL (≈ 0.105 µM)
[2]
  MIC: 0.06 µg/mL (≈ 0.0504 µM)
[3]
  MIC: ≤0.03 µg/mL
[4]
  MIC: ≤0.03 µg/mL
[5]
  MIC: 0.06 µg/mL (≈ 0.0504 µM)
[6]
  MIC: 0.125 µg/mL (≈ 0.105 µM)
[7]
  MIC: 0.25 µg/mL (≈ 0.21 µM)
[8]
  MIC: 1 µg/mL (≈ 0.839 µM)
[9]
  IC50 at 72 h: > 500 µg/mL

## CCCCCCCCC(=O)N[C@@H](CCN)C(=O)N[C@H](C(=O)N[C@H](CO)C(=O)N[C@H]1CCNC(=O)[C@H]([C@@H](C)O)NC(=O)[C@H](CCCN)NC(=O)[C@H](CCN)NC(=O)[C@H]([C@@H](C)O)NC(=O)[C@@H](Cc2ccccc2)NC(=O)[C@H](CCN)NC1=O)[C@@H](C)O [Compound 90, Nonanoyl-Dab-Thr-D-Ser-ring(4-10)[Dab-Dab-D-Phe-Thr-Dab-Orn-Thr]] (Nonanoyl-[Dab]T[dS][Dab][Dab][dF]T[Dab][Orn]T; lactam 4-C)
[1]
  MIC: 0.06 µg/mL (≈ 0.0503 µM)
[2]
  MIC: 0.03 µg/mL (≈ 0.0252 µM)
[3]
  MIC: 0.25 µg/mL (≈ 0.21 µM)
[4]
  MIC: 0.25 µg/mL (≈ 0.21 µM)
[5]
  MIC: 0.25 µg/mL (≈ 0.21 µM)
[6]
  MIC: 0.5 µg/mL (≈ 0.419 µM)
[7]
  MIC: >64 µg/mL
[8]
  MIC: 64 µg/mL (≈ 53.7 µM)
[9]
  IC50 at 72 h: 320 ± 23.6 µg/mL (≈ 268 µM)
